Experimental data reported in patent US11261186B2, “Biaryl derivative as GPR120 agonist” (LG CHEM, LTD., priority 2014, dated 2022).

Molecular target: T1, hGPR120 (Homo sapiens, UniProt Q5NUL3)
T1 construct: expressed in transfected cells; host or cells: CHO-K1
T1 sequence (Q5NUL3 1-361): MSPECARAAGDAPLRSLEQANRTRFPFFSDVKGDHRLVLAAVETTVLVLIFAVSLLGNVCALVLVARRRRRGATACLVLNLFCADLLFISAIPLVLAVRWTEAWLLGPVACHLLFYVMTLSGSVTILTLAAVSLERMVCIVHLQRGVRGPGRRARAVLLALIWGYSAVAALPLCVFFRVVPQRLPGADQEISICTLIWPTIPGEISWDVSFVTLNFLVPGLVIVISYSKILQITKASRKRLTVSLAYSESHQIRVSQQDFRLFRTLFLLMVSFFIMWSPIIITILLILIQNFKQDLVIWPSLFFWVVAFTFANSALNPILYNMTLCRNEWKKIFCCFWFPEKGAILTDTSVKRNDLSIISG
Test: Measurement of Activity of GPR120 Agonist (Cell-Based Assay), Calcium 5 dye fluorescence
Details: CHO-K1 cells expressing Ga16 and hGPR120
Method in brief: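 CHO-K1 cells co-expressing Gα16 and hGPR120 were seeded, cultured 18 h at 37 °C, then loaded 1 h with Calcium 5 dye. Serially diluted agonists (final 0.5% DMSO) were added and fluorescence read at Ex 485/Em 525 nm, expressed as percent relative to 1% DMSO-only wells.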

| SMILES | EC50 [nM] |
| --- | --- |
| CCOc1csc(-c2cc(F)c(N3CCC(CC(=O)O)CC3)c(F)c2)n1 [Example 367, {1-[4-(4-ethoxy-thiazol-2-yl)-2,6-difluoro-phenyl]-piperidin-4-yl}acetic acid] | 200 to 2000 |
| CCOc1nc(-c2cc(F)c(N3CCC(CC(=O)O)CC3)c(F)c2)sc1C [Example 368, {1-[4-(4-ethoxy-5-methyl-thiazol-2-yl)-2,6-difluoro-phenyl]-piperidin-4-yl}acetic acid] | 200 to 2000 |
| CCCCc1cncc(-c2cc(F)c(N3CCC(CC(=O)O)CC3)c(F)c2)n1 [Example 369, 2-[1-[4-(6-butylpyrazin-2-yl)-2,6-difluoro-phenyl]-4-piperidyl]acetic acid] | < 200 |
| CC(C)CCc1cncc(-c2cc(F)c(N3CCC(CC(=O)O)CC3)c(F)c2)n1 [Example 370, 2-[1-[2,6-difluoro-4-(6-isopentylpyrazin-2-yl)phenyl]-4-piperidyl]acetic acid] | 200 to 2000 |
| O=C(O)CC1CCN(c2c(F)cc(-c3ncc(F)c(OC4CCC4)n3)cc2F)CC1 [Example 371, 2-[1-[4-[4-(cyclobutoxy)-5-fluoro-pyrimidin-2-yl]-2,6-difluoro-phenyl]-4-piperidyl]acetic acid] | < 200 |
| O=C(O)CC1CCN(c2c(F)cc(-c3ncc(F)c(OCC4CC4)n3)cc2F)CC1 [Example 372, 2-[1-[4-[4-(cyclopropylmethoxy)-5-fluoro-pyrimidin-2-yl]-2,6-difluoro-phenyl]-4-piperidyl]acetic acid] | < 200 |
| O=C(O)CC1CCN(c2c(F)cc(-c3cccc(C4CCC4)n3)cc2F)CC1 [Example 373, 2-[1-[4-(6-cyclobutyl-2-pyridyl)-2,6-difluoro-phenyl]-4-piperidyl]acetic acid] | 200 to 2000 |
| O=C(O)CC1CCN(c2c(F)cc(-c3cncc(C4CCC4)n3)cc2F)CC1 [Example 374, 2-[1-[4-(6-cyclobutylpyrazin-2-yl)-2,6-difluoro-phenyl]-4-piperidyl]acetic acid] | < 200 |
| O=C(O)CC1CCN(c2c(F)cc(-c3cccc(CC4CCC4)n3)cc2F)CC1 [Example 375, 2-[1-[4-[6-(cyclobutylmethyl)-2-pyridyl]-2,6-difluoro-phenyl]-4-piperidyl]acetic acid] | 200 to 2000 |
| O=C(O)CC1CCN(c2c(F)cc(-c3cccc(CC4CCCC4)n3)cc2F)CC1 [Example 376, 2-[1-[4-[6-(cyclopentylmethyl)-2-pyridyl]-2,6-difluoro-phenyl]-4-piperidyl]acetic acid] | 200 to 2000 |
| O=C(O)CC1CCN(c2c(F)cc(-c3nc(OCC4CC4)cs3)cc2F)CC1 [Example 377, {1-[4-(4-cyclopropylmethoxy-thiazol-2-yl)-2,6-difluoro-phenyl]-piperidin-4-yl}acetic acid] | < 200 |
| O=C(O)CC1CCN(c2c(F)cc(-c3nc(OC4CCC4)cs3)cc2F)CC1 [Example 379, {1-[4-(4-cyclobutoxy-thiazol-2-yl)-2,6-difluoro-phenyl]-piperidin-4-yl}acetic acid] | < 200 |
| CCCCOc1csc(-c2cc(F)c(N3CCC(CC(=O)O)CC3)c(F)c2)n1 [Example 380, {1-[4-(4-butoxy-thiazol-2-yl)-2,6-difluoro-phenyl]-piperidin-4-yl}acetic acid] | 200 to 2000 |
| O=C(O)CC1CCN(c2c(F)cc(-c3ncnc4c3CCC4)cc2F)CC1 [Example 382, 2-[1-[4-(6,7-dihydro-5H-cyclopenta[d]pyrimidin-4-yl)-2,6-difluoro-phenyl]-4-piperidyl]acetic acid] | > 20000 |
| Cc1nc(-c2cc(F)c(N3CCC(CC(=O)O)CC3)c(F)c2)nc(OC2CCC2)c1C [Example 384, 2-[1-[4-[4-(cyclobutoxy)-5,6-dimethyl-pyrimidin-2-yl]-2,6-difluoro-phenyl]-4-piperidyl]acetic acid] | 2000 to 20000 |
| O=C(O)CCCOc1c(F)cc(-c2cccc(OC3CCC3)n2)cc1Cl [Example 385, 4-[2-chloro-4-[6-(cyclobutoxy)-2-pyridyl]-6-fluoro-phenoxy]butanoic acid] | < 200 |
| O=C(O)CCCOc1c(Cl)cc(-c2cccc(OC3CCC3)n2)cc1Cl [Example 386, 4-[2,6-dichloro-4-[6-(cyclobutoxy)-2-pyridyl]phenoxy]butanoic acid] | < 200 |
| O=C(O)CCCOc1c(F)cc(-c2occc2COCC2CC2)cc1F [Example 387, 4-[4-[3-(cyclopropylmethoxymethyl)-2-furyl]-2,6-difluoro-phenoxy]butanoic acid] | < 200 |
| O=C(O)CCCOc1c(F)cc(-c2cccc(COCC3CC3)n2)cc1F [Example 388, 4-[4-[6-(cyclopropylmethoxymethyl)-2-pyridyl]-2,6-difluoro-phenoxy]butanoic acid] | 200 to 2000 |
| O=C(O)CCCOc1c(F)cc(-c2cc(F)cc(OC3CCC3)c2)cc1Cl [Example 389, 4-[2-chloro-4-[3-(cyclobutoxy)-5-fluoro-phenyl]-6-fluoro-phenoxy]butanoic acid] | < 200 |

| SMILES | EC50 [nM] |
| --- | --- |
| Cc1onc(COCC2CC2)c1-c1cc(F)c(OCCCC(=O)O)c(F)c1 [Example 390, 4-[4-[3-(cyclopropylmethoxymethyl)-5-methyl-isoxazol-4-yl]-2,6-difluoro-phenoxy]butanoic acid] | > 20000 |
| Cc1cc(OC2CCC2)nc(-c2cc(F)c(OCCCC(=O)O)c(Cl)c2)n1 [Example 391, 4-[2-chloro-4-[4-(cyclobutoxy)-6-methyl-pyrimidin-2-yl]-6-fluoro-phenoxy]butanoic acid] | < 200 |
| Cc1cc(-c2cc(F)c(OCCCC(=O)O)c(Cl)c2)nc(OC2CCC2)n1 [Example 392, 4-[2-chloro-4-[2-(cyclobutoxy)-6-methyl-pyrimidin-4-yl]-6-fluoro-phenoxy]butanoic acid] | < 200 |
| O=C(O)CCCOc1c(F)cc(-c2cc(OC3CCC3)cc(Cl)n2)cc1F [Example 393, 4-[4-[6-chloro-4-(cyclobutoxy)-2-pyridyl]-2,6-difluoro-phenoxy]butanoic acid] | < 200 |
| O=C(O)CCCOc1c(F)cc(-c2csc(OC3CCC3)n2)cc1F [Example 394, 4-[4-[2-(cyclobutoxy)thiazol-4-yl]-2,6-difluoro-phenoxy]butanoic acid] | < 200 |
| Cc1cc(OC2CCC2)nc(-c2cc(F)c(OCCCC(=O)O)c(F)c2)c1 [Example 395, 4-[4-[6-(cyclobutoxy)-4-methyl-2-pyridyl]-2,6-difluoro-phenoxy]butanoic acid] | < 200 |
| Cc1cc(OCC2CC2)nc(-c2cc(F)c(OCCCC(=O)O)c(Cl)c2)n1 [Example 396, 4-[2-chloro-4-[4-(cyclopropylmethoxy)-6-methyl-pyrimidin-2-yl]-6-fluoro-phenoxy]butanoic acid] | < 200 |
| O=C(O)CCCOc1c(F)cc(-c2csc(OCC3CC3)n2)cc1F [Example 397, 4-[4-[2-(cyclopropylmethoxy)thiazol-4-yl]-2,6-difluoro-phenoxy]butanoic acid] | < 200 |
| O=C(O)CCCOc1c(F)cc(-c2cncc(OC3CCC3)n2)cc1F [Example 398, 4-[4-[6-(cyclobutoxy)pyrazin-2-yl]-2,6-difluoro-phenoxy]butanoic acid] | < 200 |
| CC(CCCC(=O)O)c1c(F)cc(-c2cncc(OC3CCC3)n2)cc1F (stereo not drawn) [Example 399, 5-[4-[6-(cyclobutoxy)pyrazin-2-yl]-2,6-difluoro-phenyl]hexanoic acid] | < 200 |
| O=C(O)CCCOc1c(F)cc(-c2cccc(OC3CCCC3)n2)cc1Cl [Example 400, 4-[2-chloro-4-(6-cyclopentyloxy-pyridin-2-yl)-6-fluoro-phenoxy]-butyric acid] | < 200 |
| O=C(O)CCCOc1c(F)cc(-c2cccc(OCC3CC3)n2)cc1Cl [Example 401, 4-[2-chloro-4-(6-cyclopropylmethoxy-pyridin-2-yl)-6-fluoro-phenoxy]-butyric acid] | < 200 |
| CC(C)Oc1cccc(-c2cc(F)c(OCCCC(=O)O)c(Cl)c2)n1 [Example 402, 4-[2-chloro-6-fluoro-4-(6-isopropoxy-pyridin-2-yl)-phenoxy]-butyric acid] | < 200 |
| O=C(O)CCCOc1c(F)cc(-c2cccc(SC3CCC3)n2)cc1Cl [Example 403, 4-[2-chloro-4-(6-cyclobutylsulfanyl-pyridin-2-yl)-6-fluoro-phenoxy]-butyric acid] | < 200 |
| CC(C)Sc1cccc(-c2cc(F)c(OCCCC(=O)O)c(Cl)c2)n1 [Example 404, 4-[2-chloro-6-fluoro-4-(6-isopropylsulfanyl-pyridin-2-yl)-phenoxy]-butyric acid] | < 200 |
| O=C(O)CCCOc1c(F)cc(-c2cccc(OC3CCC3)c2)cc1Cl [Example 405, 4-(5-chloro-3′-cyclobutoxy-3-fluoro-biphenyl-4-yloxy)-butyric acid] | < 200 |
| O=C(O)CCCOc1c(F)cc(-c2cccc(OCC3CC3)c2)cc1Cl [Example 406, 4-(5-chloro-3′-cyclopropylmethoxy-3-fluoro-biphenyl-4-yloxy)-butyric acid] | < 200 |
| COc1ccc(-c2cc(F)c(OCCCC(=O)O)c(Cl)c2)cc1OCC1CC1 [Example 407, 4-(5-chloro-3′-cyclopropylmethoxy-3-fluoro-4′-methoxy-biphenyl-4-yloxy)-butyric acid] | < 200 |
| O=C(O)CCCOc1c(F)cc(-c2ccc(F)c(OCC3CC3)c2)cc1Cl [Example 408, 4-(5-chloro-3′-cyclopropylmethoxy-3,4′-difluoro-biphenyl-4-yloxy)-butyric acid] | < 200 |
